Measured values: ChEMBL document CHEMBL3885881, “DrugMatrix”

Species: Rattus norvegicus
Assay: DrugMatrix - Regimen: Daily Repeat
Assay type: toxicity, organism-based, Sprague-Dawley
Parameters: regimen Daily Repeat, gender Male, age 6-8 weeks
Conditions: in vivo, po, route oral GAVAGE, vehicle 100 % WATER; for URIC ACID / ALANINE AMINOTRANSFERASE / ALBUMIN / ALKALINE PHOSPHATASE / ASPARTATE AMINOTRANSFERASE / BLOOD UREA NITROGEN / CARBON DIOXIDE / CHLORIDE / CHOLESTEROL / CREATININE / GLUCOSE / LACTATE DEHYDROGENASE / LIPASE / PHOSPHORUS / POTASSIUM / SODIUM / TOTAL BILIRUBIN / TOTAL PROTEIN / CREATINE PHOSPHOKINASE: tissue Plasma; for ABSOLUTE BASOPHIL / ABSOLUTE EOSINOPHIL / ABSOLUTE LYMPHOCYTE / ABSOLUTE MONOCYTE / ABSOLUTE SEGMENTED NEUTROPHIL / BASOPHIL / EOSINOPHIL / ERYTHROCYTE COUNT / HEMATOCRIT / HEMOGLOBIN / LEUKOCYTE COUNT / LYMPHOCYTE / MEAN CORPUSCULAR HEMOGLOBIN / MEAN CORPUSCULAR HEMOGLOBIN CONCENTRATION / MEAN CORPUSCULAR VOLUME / MONOCYTE / NEUTROPHIL / NUCLEATED RED BLOOD CELLS / PLATELET COUNT: tissue Blood
[1] = 25 mg/kg, 120 h, dose level Low, time 5 day
[2] = 120 mg/kg, 72 h, dose level High, time 3 day
[3] = 120 mg/kg, 120 h, dose level High, time 5 day

For `c1ccc([C@H]2CN3CCSC3=N2)cc1` [LEVAMISOLE], the “URIC ACID” value (25 mg/kg, 72 h, dose level Low, time 3 day) was 1.67 mg/dL, the “ABSOLUTE BASOPHIL” value [1] was 0 CELLS/uL and the “ABSOLUTE EOSINOPHIL” value [1] was 174 CELLS/uL. For the same compound, the “ABSOLUTE LYMPHOCYTE” value [1] was 12224.67 CELLS/uL, the “ABSOLUTE MONOCYTE” value [1] was 328 CELLS/uL and the “ABSOLUTE SEGMENTED NEUTROPHIL” value [1] was 1106.67 CELLS/uL. For the same compound, the BASOPHIL [1] was 0%, the EOSINOPHIL [1] was 1.33% and the “ERYTHROCYTE COUNT” value [1] was 5.32 x10E6/uL. For the same compound, the HEMATOCRIT [1] was 33.6%, the HEMOGLOBIN [1] was 13.4 G/DL and the “LEUKOCYTE COUNT” value [1] was 13.83 x10E3/uL. For the same compound, the LYMPHOCYTE [1] was 88.33%, the “MEAN CORPUSCULAR HEMOGLOBIN” value [1] was 25.2 pg and the “MEAN CORPUSCULAR HEMOGLOBIN CONCENTRATION” value [1] was 39.9 G/DL. For the same compound, the “MEAN CORPUSCULAR VOLUME” value [1] was 63.2 fL, the MONOCYTE [1] was 2.33% and the NEUTROPHIL [1] was 8%. For the same compound, the “NUCLEATED RED BLOOD CELLS” value [1] was 0 /100WBC, the “PLATELET COUNT” value [1] was 1156 x10E3/uL and the “ALANINE AMINOTRANSFERASE” value [1] was 50 u/L. For the same compound, the ALBUMIN [1] was 4.2 G/DL, the “ALKALINE PHOSPHATASE” value [1] was 418 u/L and the “ASPARTATE AMINOTRANSFERASE” value [1] was 86.33 u/L. For the same compound, the “BLOOD UREA NITROGEN” value [1] was 17.67 mg/dL, the “CARBON DIOXIDE” value [1] was 27.33 mmol/L and the CHLORIDE [1] was 100.67 MEQ/L. It also gave a CHOLESTEROL [1] of 69.67 mg/dL, a CREATININE [1] of 0.19 mg/dL and a GLUCOSE [1] of 136 mg/dL. For the same compound, the “LACTATE DEHYDROGENASE” value [1] was 423 u/L, the LIPASE [1] was 11 u/L and the PHOSPHORUS [1] was 11.83 mg/dL. The POTASSIUM [1] was 6.36 MEQ/L, the SODIUM [1] was 141.8 MEQ/L and the “TOTAL BILIRUBIN” value [1] was 0.23 mg/dL. For the same compound, the “TOTAL PROTEIN” value [1] was 5.77 G/DL, the “URIC ACID” value [1] was 1.4 mg/dL and the “ABSOLUTE BASOPHIL” value [2] was 0 CELLS/uL. The “ABSOLUTE EOSINOPHIL” value [2] was 0 CELLS/uL, the “ABSOLUTE LYMPHOCYTE” value [2] was 11350 CELLS/uL and the “ABSOLUTE MONOCYTE” value [2] was 85 CELLS/uL. The “ABSOLUTE SEGMENTED NEUTROPHIL” value [2] was 565 CELLS/uL, the BASOPHIL [2] was 0% and the EOSINOPHIL [2] was 0%. For the same compound, the “ERYTHROCYTE COUNT” value [2] was 7.38 x10E6/uL, the HEMATOCRIT [2] was 45.33% and the HEMOGLOBIN [2] was 17.77 G/DL. The “LEUKOCYTE COUNT” value [2] was 12 x10E3/uL, the LYMPHOCYTE [2] was 94% and the “MEAN CORPUSCULAR HEMOGLOBIN” value [2] was 24.1 pg. The “MEAN CORPUSCULAR HEMOGLOBIN CONCENTRATION” value [2] was 39.17 G/DL, the “MEAN CORPUSCULAR VOLUME” value [2] was 61.5 fL and the MONOCYTE [2] was 1%. The NEUTROPHIL [2] was 5%, the “NUCLEATED RED BLOOD CELLS” value [2] was 0 /100WBC and the “PLATELET COUNT” value [2] was 1087.67 x10E3/uL. For the same compound, the “ALANINE AMINOTRANSFERASE” value [2] was 57.33 u/L, the ALBUMIN [2] was 4.4 G/DL and the “ALKALINE PHOSPHATASE” value [2] was 373.67 u/L. For the same compound, the “ASPARTATE AMINOTRANSFERASE” value [2] was 80.33 u/L, the “BLOOD UREA NITROGEN” value [2] was 17.67 mg/dL and the “CARBON DIOXIDE” value [2] was 28.33 mmol/L. The CHLORIDE [2] was 98 MEQ/L, the CHOLESTEROL [2] was 87.33 mg/dL and the “CREATINE PHOSPHOKINASE” value [2] was 366 u/L. For the same compound, the CREATININE [2] was 0.2 mg/dL, the GLUCOSE [2] was 152 mg/dL and the “LACTATE DEHYDROGENASE” value [2] was 277.67 u/L. It also gave an LIPASE [2] of 12 u/L, a PHOSPHORUS [2] of 12.7 mg/dL and a POTASSIUM [2] of 6.52 MEQ/L. The SODIUM [2] was 140.77 MEQ/L, the “TOTAL BILIRUBIN” value [2] was 0.13 mg/dL and the “TOTAL PROTEIN” value [2] was 6 G/DL. For the same compound, the “URIC ACID” value [2] was 2.23 mg/dL, the “ABSOLUTE BASOPHIL” value [3] was 0 CELLS/uL and the “ABSOLUTE EOSINOPHIL” value [3] was 0 CELLS/uL. The “ABSOLUTE LYMPHOCYTE” value [3] was 13503 CELLS/uL, the “ABSOLUTE MONOCYTE” value [3] was 159 CELLS/uL and the “ABSOLUTE SEGMENTED NEUTROPHIL” value [3] was 804.67 CELLS/uL. The BASOPHIL [3] was 0%, the EOSINOPHIL [3] was 0% and the “ERYTHROCYTE COUNT” value [3] was 5.98 x10E6/uL. The HEMATOCRIT [3] was 36.6%, the HEMOGLOBIN [3] was 14.47 G/DL and the “LEUKOCYTE COUNT” value [3] was 14.47 x10E3/uL. For the same compound, the LYMPHOCYTE [3] was 93.33%, the “MEAN CORPUSCULAR HEMOGLOBIN” value [3] was 24.23 pg and the “MEAN CORPUSCULAR HEMOGLOBIN CONCENTRATION” value [3] was 39.53 G/DL. For the same compound, the “MEAN CORPUSCULAR VOLUME” value [3] was 61.17 fL, the MONOCYTE [3] was 1% and the NEUTROPHIL [3] was 5.67%. The “NUCLEATED RED BLOOD CELLS” value [3] was 0 /100WBC, the “PLATELET COUNT” value [3] was 1244.33 x10E3/uL and the “ALANINE AMINOTRANSFERASE” value [3] was 67.33 u/L. The ALBUMIN [3] was 4.1 G/DL, the “ALKALINE PHOSPHATASE” value [3] was 355.33 u/L and the “ASPARTATE AMINOTRANSFERASE” value [3] was 137.33 u/L. For the same compound, the “BLOOD UREA NITROGEN” value [3] was 19.33 mg/dL, the “CARBON DIOXIDE” value [3] was 20.33 mmol/L and the CHLORIDE [3] was 101 MEQ/L. The CHOLESTEROL [3] was 84.33 mg/dL, the “CREATINE PHOSPHOKINASE” value [3] was 932 u/L and the CREATININE [3] was 0.23 mg/dL. For the same compound, the GLUCOSE [3] was 177.33 mg/dL, the “LACTATE DEHYDROGENASE” value [3] was 504.67 u/L and the LIPASE [3] was 12.67 u/L. The PHOSPHORUS [3] was 13.73 mg/dL, the POTASSIUM [3] was 6.59 MEQ/L and the SODIUM [3] was 143.9 MEQ/L. The “TOTAL BILIRUBIN” value [3] was 0.27 mg/dL, the “TOTAL PROTEIN” value [3] was 5.67 G/DL and the “URIC ACID” value [3] was 3.13 mg/dL.
